The record followed here is patent US20090264433A1, “Compounds, Compositions and Methods Comprising Triazine Derivatives” (Institute for OneWorld Health, priority 2008, published 2009).

In the experiment the target is T1, CFTR channel in human colonic T84 cells (Homo sapiens, UniProt P13569).
T1 construct: results in the phosphorylation and opening of CFTR anion channels; host or cells: human colonic T84 cells
T1 sequence (P13569 whole entry): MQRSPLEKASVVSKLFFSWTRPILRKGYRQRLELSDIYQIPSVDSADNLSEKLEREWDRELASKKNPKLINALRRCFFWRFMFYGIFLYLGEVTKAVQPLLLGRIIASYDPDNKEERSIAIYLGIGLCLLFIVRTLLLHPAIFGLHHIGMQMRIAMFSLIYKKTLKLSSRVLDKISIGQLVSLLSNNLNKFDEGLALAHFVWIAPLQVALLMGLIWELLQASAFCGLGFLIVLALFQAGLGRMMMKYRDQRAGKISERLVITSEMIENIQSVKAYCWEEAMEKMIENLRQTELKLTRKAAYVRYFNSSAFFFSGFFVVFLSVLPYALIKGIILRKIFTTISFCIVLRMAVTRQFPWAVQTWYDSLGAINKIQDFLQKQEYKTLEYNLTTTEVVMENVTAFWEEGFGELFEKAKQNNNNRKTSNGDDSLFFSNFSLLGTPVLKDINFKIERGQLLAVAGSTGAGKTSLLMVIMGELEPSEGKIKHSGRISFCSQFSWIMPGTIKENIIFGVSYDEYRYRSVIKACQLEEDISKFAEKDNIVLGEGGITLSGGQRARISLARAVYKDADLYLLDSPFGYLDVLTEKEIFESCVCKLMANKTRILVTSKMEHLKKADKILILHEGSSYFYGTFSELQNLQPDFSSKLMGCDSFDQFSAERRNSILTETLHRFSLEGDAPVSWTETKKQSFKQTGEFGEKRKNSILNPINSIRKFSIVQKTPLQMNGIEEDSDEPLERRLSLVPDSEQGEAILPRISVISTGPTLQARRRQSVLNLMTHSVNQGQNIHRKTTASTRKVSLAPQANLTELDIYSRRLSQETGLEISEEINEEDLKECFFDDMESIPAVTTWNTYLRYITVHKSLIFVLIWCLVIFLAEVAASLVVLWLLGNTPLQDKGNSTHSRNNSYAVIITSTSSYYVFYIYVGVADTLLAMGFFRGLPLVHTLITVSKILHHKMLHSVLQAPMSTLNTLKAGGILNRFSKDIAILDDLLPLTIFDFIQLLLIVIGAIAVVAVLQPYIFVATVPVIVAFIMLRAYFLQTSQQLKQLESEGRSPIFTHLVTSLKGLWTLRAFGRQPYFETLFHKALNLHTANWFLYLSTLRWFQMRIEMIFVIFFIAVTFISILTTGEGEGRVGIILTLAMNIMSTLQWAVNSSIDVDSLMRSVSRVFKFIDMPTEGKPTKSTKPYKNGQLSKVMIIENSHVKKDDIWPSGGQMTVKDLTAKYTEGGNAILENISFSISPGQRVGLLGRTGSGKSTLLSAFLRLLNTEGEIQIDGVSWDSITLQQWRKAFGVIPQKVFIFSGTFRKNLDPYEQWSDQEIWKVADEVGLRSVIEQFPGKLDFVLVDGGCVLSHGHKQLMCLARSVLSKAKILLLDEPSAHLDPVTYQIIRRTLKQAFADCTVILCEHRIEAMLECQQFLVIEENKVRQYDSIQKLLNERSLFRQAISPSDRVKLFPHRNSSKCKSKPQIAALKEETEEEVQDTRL
In words: T84 assay (FLIPR membrane potential dye, forskolin/IBMX-stimulated CFTR). The note with it: average of at least 2 runs unless annotated n = 1. Format: cell-based. The protocol: (§1) For example, Human colonic T84 cells can be acquired from the European Collection of Cell Cultures (ECACC) and grown in standard culture conditions as described by the supplier. On the day before assay 25,000 T84 cells per well are plated into standard black walled, clear bottom 384-well assay plates in standard growth medium consisting of DMEM:F12 with 10% FBS and incubated overnight. On the day of the assay the plates are washed using a standard assay buffer (HBSS with 10 mM Hepes) and incubated for 15 minutes in serum free cell culture medium before the addition of a commercially available membrane potential sensitive fluorescent dye (FLIPR Red membrane potential dye, Molecular Devices Corporation). T84 cells are incubated with the FLIPR Red membrane potential dye for 45 minutes in the presence and absence of test compound before being transferred to a commercially available fluorescence imaging plate reader (FLIPR384, Molecular Devices Corporation). Fluorescence levels are monitored continuously every second for 150 seconds; after an initial 10 second baseline, CFTR channel activity is stimulated through the addition of 10 μM forskolin in the presence of 100 μM of the phosphodiesterase inhibitor iso-butyl-methylxanthine (IBMX). Addition of the forskolin leads to the activation of intracellular adenylyl cylase 1, elevating cAMP levels and results in the phosphorylation and opening of CFTR anion channels. CFTR channel opening causes chloride ion efflux and subsequent depolarization of the cells, which is measured by an increase in fluorescence. CFTR inhibitor compounds prevent cell depolarization and the associated increase in fluorescence.
as §1, with “Human colonic” for “For example, Human colonic”, “T84 cells are acquired from” for “T84 cells can be acquired from”, “(ECACC) and are grown in” for “(ECACC) and grown in”
In the case of `Oc1c(Br)cc(-c2cnc(COc3ccc(-c4ccccc4)cc3)nn2)cc1Br` [Compound 55, 4-(3-((biphenyl-4-yloxy)methyl)-1,2,4-triazin-6-yl)-2,6-dibromophenol], half-maximal inhibition (IC50) was put at 22.9 µM.
Next, `Oc1c(Br)cc(-c2cnc(COc3ccc(F)cc3F)nn2)cc1Br` [Compound 56, 2,6-dibromo-4-(3-((2,4-difluorophenoxy)methyl)-1,2,4-triazin-6-yl)phenol]: 25.3 µM; `Cc1ccc(C(C)C)c(OCc2ncc(-c3cc(Br)c(O)c(Br)c3)nn2)c1` [Compound 57, 2,6-dibromo-4-(3-((2-isopropyl-5-methylphenoxy)methyl)-1,2,4-triazin-6-yl)phenol]: 26.8 µM.
Next, `Oc1c(Br)cc(-c2cnc(OCCc3ccc(Cl)cc3)nn2)cc1Br` [Compound 90, 2,6-dibromo-4-(3-(4-chlorophenethoxy)-1,2,4-triazin-6-yl)phenol]: 0.17 µM.
For the compound `Oc1c(Br)cc(-c2cnc(OC3c4ccccc4Oc4ccccc43)nn2)cc1Br` [Compound 91, 4-(3-(9H-xanthen-9-yloxy)-1,2,4-triazin-6-yl)-2,6-dibromophenol], the IC50 (commonly the concentration needed to halve the response being measured) amounted to 4.09 µM.
Next, `CC(C)(C)OC(=O)N1CCN(Cc2cc(Cl)ccc2OCc2ncc(-c3cc(Br)c(O)c(Br)c3)nn2)CC1` [Compound 92, tert-butyl 4-(5-chloro-2-((6-(3,5-dibromo-4-hydroxyphenyl)-1,2,4-triazin-3-yl)methoxy)benzyl)piperazine-1-carboxylate]: 4.56 µM.
Next, `CC(C)(C)c1ccc(CCOc2ncc(-c3cc(Br)c(O)c(Br)c3)nn2)cc1` [Compound 93, 2,6-dibromo-4-(3-(4-tert-butylphenethoxy)-1,2,4-triazin-6-yl)phenol]: 0.64 µM.
As for `Oc1c(Br)cc(-c2cnc(OCCc3ccccc3Cl)nn2)cc1Br` [Compound 94, 2,6-dibromo-4-(3-(2-chlorophenethoxy)-1,2,4-triazin-6-yl)phenol], the midpoint of inhibition, the IC50, lay at 0.34 µM.
Next, `Oc1c(Br)cc(-c2cnc(OCCCc3ccc(Cl)cc3)nn2)cc1Br` [Compound 95, 2,6-dibromo-4-(3-(3-(4-chlorophenyl)propoxy)-1,2,4-triazin-6-yl)phenol]: 0.61 µM.
Next, `Oc1c(Br)cc(-c2cnc(OCCc3ccccc3)nn2)cc1Br` [Compound 96, 2,6-dibromo-4-(3-phenethoxy-1,2,4-triazin-6-yl)phenol]: 0.47 µM.
As to `COc1ccc(CCOc2ncc(-c3cc(Br)c(O)c(Br)c3)nn2)cc1` [Compound 97, 2,6-dibromo-4-(3-(4-methoxyphenethoxy)-1,2,4-triazin-6-yl)phenol], the IC50 is 0.45 µM.
Next, `Cc1ccc(CCOc2ncc(-c3cc(Br)c(O)c(Br)c3)nn2)cc1` [Compound 98, 2,6-dibromo-4-(3-(4-methylphenethoxy)-1,2,4-triazin-6-yl)phenol]: 0.3 µM.
On to `Oc1c(Br)cc(-c2cnc(OCCc3ccc(Cl)c(Cl)c3)nn2)cc1Br` [Compound 99, 2,6-dibromo-4-(3-(3,4-dichlorophenethoxy)-1,2,4-triazin-6-yl)phenol], for which the IC50 worked out at 0.26 µM.
Next, `Oc1c(Br)cc(-c2cnc(C(O)(c3ccc(Cl)cc3)c3ccc(Cl)cc3)nn2)cc1Br` [Compound 100, 4-(3-(bis(4-chlorophenyl)(hydroxy)methyl)-1,2,4-triazin-6-yl)-2,6-dibromophenol]: 7.77 µM; `Oc1c(Br)cc(-c2cnc(OCc3ccccn3)nn2)cc1Br` [Compound 104, 2,6-dibromo-4-(3-(pyridin-2-ylmethoxy)-1,2,4-triazin-6-yl)phenol]: 16 µM; `Oc1c(Br)cc(-c2cnc(OCc3ccncc3)nn2)cc1Br` [Compound 106, 2,6-dibromo-4-(3-(pyridin-4-ylmethoxy)-1,2,4-triazin-6-yl)phenol]: 18.1 µM.
Next, `Oc1c(Br)cc(-c2cnc(OCc3cc(Br)cs3)nn2)cc1Br` [Compound 107, 2,6-dibromo-4-(3-((4-bromothiophen-2-yl)methoxy)-1,2,4-triazin-6-yl)phenol]: 0.44 µM.
`Oc1c(Br)cc(-c2cnc(OC3CCc4ccccc4C3)nn2)cc1Br` (stereo not shown) [Compound 108, 2,6-dibromo-4-(3-(1,2,3,4-tetrahydronaphthalen-2-yloxy)-1,2,4-triazin-6-yl)phenol]: inhibition was half-maximal at 1.18 µM (IC50).
Next, `Oc1c(Br)cc(-c2cnc(OC(c3cccc(C(F)(F)F)c3)c3cccc(C(F)(F)F)c3)nn2)cc1Br` [Compound 109, 4-(3-(bis(3-(trifluoromethyl)phenyl)methoxy)-1,2,4-triazin-6-yl)-2,6-dibromophenol]: 12.2 µM; `Oc1c(Br)cc(-c2cnc(OCc3ccc(CN4CCOCC4)cc3)nn2)cc1Br` [Compound 110, 2,6-dibromo-4-(3-(4-(morpholinomethyl)benzyloxy)-1,2,4-triazin-6-yl)phenol]: 12.9 µM.
`Oc1c(Cl)cc(-c2cnc(OC(Cc3ccccc3)c3ccccc3)nn2)cc1Cl` (stereo not shown) [Compound 111, 2,6-dichloro-4-(3-(1,2-diphenylethoxy)-1,2,4-triazin-6-yl)phenol] came in with a half-maximal inhibitory concentration (IC50) of 1.89 µM.
Next, `Oc1c(Cl)cc(-c2cnc(OCCc3ccc(Cl)cc3)nn2)cc1Cl` [Compound 112, 2,6-dichloro-4-(3-(4-chlorophenethoxy)-1,2,4-triazin-6-yl)phenol]: 0.17 µM.
Next, `Oc1c(Cl)cc(-c2cnc(OCc3ccc(Cl)cc3)nn2)cc1Cl` [Compound 113, 2,6-dichloro-4-(3-(4-chlorobenzyloxy)-1,2,4-triazin-6-yl)phenol]: 1.3 µM.
Next, `Oc1c(Cl)cc(-c2cnc(OCc3cccc(Cl)c3Cl)nn2)cc1Cl` [Compound 114, 2,6-dichloro-4-(3-(2,3-dichlorobenzyloxy)-1,2,4-triazin-6-yl)phenol]: 3.36 µM; `Oc1c(Cl)cc(-c2cnc(OCCc3cccc4ccccc34)nn2)cc1Cl` [Compound 115, 2,6-dichloro-4-(3-(2-(naphthalen-1-yl)ethoxy)-1,2,4-triazin-6-yl)phenol]: 0.35 µM.
Turning to `Oc1c(Cl)cc(-c2cnc(OCc3cccc4ccccc34)nn2)cc1Cl` [Compound 116, 2,6-dichloro-4-(3-(naphthalen-1-ylmethoxy)-1,2,4-triazin-6-yl)phenol], the 50% inhibitory concentration (IC50) amounted to 1.89 µM.
Next, `Oc1c(Cl)cc(-c2cnc(OCCc3ccc(Br)cc3)nn2)cc1Cl` [Compound 117, 4-(3-(4-bromophenethoxy)-1,2,4-triazin-6-yl)-2,6-dichlorophenol]: 0.61 µM.
Next, `Oc1c(Br)cc(-c2cnc(OCc3cnc(Br)s3)nn2)cc1Br` [Compound 118, 2,6-dibromo-4-(3-((2-bromothiazol-5-yl)methoxy)-1,2,4-triazin-6-yl)phenol]: 3.23 µM; `CN(C)c1cccc(COc2ncc(-c3cc(Cl)c(O)c(Cl)c3)nn2)c1` [Compound 119, 2,6-dichloro-4-(3-(3-(dimethylamino)benzyloxy)-1,2,4-triazin-6-yl)phenol]: 3.4 µM.
Next, `Oc1c(Cl)cc(-c2cnc(NCc3cccc(Cl)c3Cl)nn2)cc1Cl` [Compound 121, 2,6-Dichloro-4-(3-(2,3-dichlorobenzylamino)-1,2,4-triazin-6-yl)phenol]: 13.1 µM.
Take `Oc1c(Cl)cc(-c2cnc(OCCNCc3ccccc3)nn2)cc1Cl` [Compound 124, 4-(3-(2-(benzylamino)ethoxy)-1,2,4-triazin-6-yl)-2,6-dichlorophenol]: the IC50 was determined as 1.98 µM.
Next, `Oc1c(Cl)cc(-c2cnc(OCCNc3ccccc3)nn2)cc1Cl` [Compound 125, 2,6-dichloro-4-(3-(2-(phenylamino)ethoxy)-1,2,4-triazin-6-yl)phenol]: 25.8 µM; `O=C(c1cccc(C(F)(F)F)c1)N1CCN(Cc2cc(Cl)ccc2OCc2ncc(-c3cc(Br)c(O)c(Br)c3)nn2)CC1` [Compound 126, (4-(5-chloro-2-((6-(3,5-dibromo-4-hydroxyphenyl)-1,2,4-triazin-3-yl)methoxy)benzyl)piperazin-1-yl)(3-(trifluoromethyl)phenyl)methanone]: 5.44 µM.
Next, `Oc1c(Cl)cc(-c2cnc(OCc3ccccc3F)nn2)cc1Cl` [Compound 127, 2,6-dichloro-4-(3-(2-fluorobenzyloxy)-1,2,4-triazin-6-yl)phenol]: 5.46 µM.
